Source: patent publication US20250114460A1, “NOVEL PLK1 DEGRADATION INDUCING COMPOUND” (UPPTHERA, INC., priority 2021, published 2025)

Tests used:
Type in all cases: cell-based
NCI-H526 cell line = experiment: Cell viability assay for H526 cell (EZ-Cytox); details: Homo sapiens, NCI-H526, 120 h; H526 cells, 5 days, 3000 nM to 0.46 nM
Procedure, shortened: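 NCI-H526 cells were exposed to compound in CO2 incubator culture for 5 days. Viability was read by EZ-Cytox absorbance at 450 nm after 3 min shaking, giving IC50 values.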

PLK1 = biological target: T1, PLK1 (Homo sapiens, UniProt P53350); experiment: Luciferase assay for PLK1 in HeLa LgBit (Plk1-HiBit KI) cell line; details: 300 nM compound, luminescence after 9 hours
T1 construct: endogenous in cells; host or cells: HeLa LgBit (Plk1-HiBit KI): HeLa stably expressing LgBit, with a CRISPR/Cas9 knock-in of HiBit at the endogenous PLK1 locus
Procedure, shortened: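 HeLa cells stably expressing LgBit, with HiBit knocked in at the C-terminus of endogenous Plk1, released from a 24 h 2 mM thymidine block and grown 18 h. Endurazine added, then compound at 300 nM; luminescence tracked in real time, expressed as ratio to DMSO.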

MRC-5 cell line = experiment: Cell viability assay for MRC-5 cell line (EZ-Cytox); details: Homo sapiens, MRC5, 120 h; MRC-5 normal cell line, 5 days, 10000 nM to 1.52 nM; N.D. = no cytotoxicity until 10 μM; read-out: Activity: IC50 value of Exemplary Compound to MRC-5 cell line
Experimental: 4. Cell Viability Assay for MRC-5 Cell Line
(1) Culture of MRC-5 Cell Line
Passage of cultured cells was maintained within P15.
(2) Treatment of Compounds of the Present Invention
Then, it was cultured in 37° C.
(3) Cytotoxicity Experiment
CO2 incubator for 4 hours.

T1 sequence (P53350 whole entry): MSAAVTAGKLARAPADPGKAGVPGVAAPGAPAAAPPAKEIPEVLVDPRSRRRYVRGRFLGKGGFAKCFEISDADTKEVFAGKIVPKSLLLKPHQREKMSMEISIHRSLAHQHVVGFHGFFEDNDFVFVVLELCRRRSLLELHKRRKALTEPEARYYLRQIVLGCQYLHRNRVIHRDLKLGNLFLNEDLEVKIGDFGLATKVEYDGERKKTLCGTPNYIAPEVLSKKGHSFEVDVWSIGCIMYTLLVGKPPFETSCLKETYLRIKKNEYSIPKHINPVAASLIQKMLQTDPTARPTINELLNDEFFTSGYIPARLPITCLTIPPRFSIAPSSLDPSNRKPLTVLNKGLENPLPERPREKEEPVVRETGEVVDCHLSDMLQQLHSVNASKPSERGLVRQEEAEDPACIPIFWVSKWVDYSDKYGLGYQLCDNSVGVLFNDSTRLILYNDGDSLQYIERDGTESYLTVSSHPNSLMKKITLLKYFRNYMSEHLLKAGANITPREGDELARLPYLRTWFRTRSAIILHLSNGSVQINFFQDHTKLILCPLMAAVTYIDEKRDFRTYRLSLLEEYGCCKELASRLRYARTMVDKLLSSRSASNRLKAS

SMILES | Activity: ratio of the luminescense value of each Exemplary Compound treatment group to DMSO treatment group (PLK1) | IC50 (NCI-H526 cell line) [µM] | IC50 (MRC-5 cell line) [µM]
COc1cc(C(=O)NC2CCN(C(=O)CCCOc3cccc4c3CN(C3CCC(=O)NC3=O)C4=O)CC2)ccc1Nc1ncc2c(n1)N(C1CCCC1)CC(F)(F)C(=O)N2C (stereo not drawn) [Compound 32, 4-((9-cyclopentyl-7,7-difluoro-5-methyl-6-oxo-6,7,8,9-tetrahydro-5H-pyrimido[4,5-b][1,4]diazepin-2-yl)amino)-N-(1-(4-((2-(2,6-dioxopiperidin-3-yl)-1-oxoisoindolin-4-yl)oxy)butanoyl)piperidin-4-yl)-3-methoxybenzamide] | ++ (++<0.6) | < 0.05 | > 10
COc1cc(C(=O)NN2CCN(C3CCN(c4ccc5c(c4)C(=O)N(C4CCC(=O)NC4=O)C5=O)C3)CC2)ccc1Nc1ncc2c(n1)N(C1CCCC1)CC(F)(F)C(=O)N2C (stereo not drawn) [Compound 56, 4-((9-cyclopentyl-7,7-difluoro-5-methyl-6-oxo-6,7,8,9-tetrahydro-5H-pyrimido[4,5-b][1,4]diazepin-2-yl)amino)-N-(4-(1-(2-(2,6-dioxopiperidin-3-yl)-1,3-dioxoisoindolin-5-yl)pyrrolidin-3-yl)piperazin-1-yl)-3-methoxybenzamide] | ++ (++<0.6) | < 0.03 | > 10
COc1cc(C(=O)NC2CCN(C(=O)CCCNc3cccc4c3CN(C3CCC(=O)NC3=O)C4=O)CC2)ccc1Nc1ncc2c(n1)N(C1CCCC1)CC(F)(F)C(=O)N2C (stereo not drawn) [Compound 26, 4-((9-cyclopentyl-7,7-difluoro-5-methyl-6-oxo-6,7,8,9-tetrahydro-5H-pyrimido[4,5-b][1,4]diazepin-2-yl)amino)-N-(1-(4-((2-(2,6-dioxopiperidin-3-yl)-1-oxoisoindolin-4-yl)amino)butanoyl)piperidin-4-yl)-3-methoxybenzamide] | ++ (++<0.6) | < 0.05 | > 10
COc1cc(C(=O)NN2CCN(C(=O)CCC3CCN(c4cccc5c4CN(C4CCC(=O)NC4=O)C5=O)CC3)CC2)ccc1Nc1ncc2c(n1)N(C(C)C)CC(F)(F)C(=O)N2C (stereo not drawn) [Compound 58, 4-((7,7-difluoro-9-isopropyl-5-methyl-6-oxo-6,7,8,9-tetrahydro-5H-pyrimido[4,5-b][1,4]diazepin-2-yl)amino)-N-(4-(3-(1-(2-(2,6-dioxopiperidin-3-yl)-1-oxoisoindolin-4-yl)piperidin-4-yl)propanoyl)piperazin-1-yl)-3-methoxybenzamide] | ++ (++<0.6) | < 0.05 | > 10
COc1cc(C(=O)NC2CCN(C(=O)CCN3CCN(c4cccc5c4CN(C4CCC(=O)NC4=O)C5=O)CC3)CC2)ccc1Nc1ncc2c(n1)N(C1CCCC1)CC(F)(F)C(=O)N2C (stereo not drawn) [Compound 81, 4-((9-cyclopentyl-7,7-difluoro-5-methyl-6-oxo-6,7,8,9-tetrahydro-5H-pyrimido[4,5-b][1,4]diazepin-2-yl)amino)-N-(1-(3-(4-(2-(2,6-dioxopiperidin-3-yl)-1-oxoisoindolin-4-yl)piperazin-1-yl)propanoyl)piperidin-4-yl)-3-methoxybenzamide] | ++ (++<0.6) | < 0.05 | > 10

Continued, in another order:

Activity: ratio of the luminescense value of each Exemplary Compound treatment group to DMSO treatment group (PLK1) | SMILES | IC50 (NCI-H526 cell line) [µM] | IC50 (MRC-5 cell line) [µM]
++ (++<0.6) | COc1cc2c(cc1Nc1ncc3c(n1)N(C1CCCC1)CC(F)(F)C(=O)N3C)CCN(C1CCN(C(=O)CCN3CCN(c4cccc5c4C(=O)N(C4CCC(=O)NC4=O)C5=O)CC3)CC1)C2=O (stereo not drawn) [Compound 102, 4-(4-(3-(4-(6-((9-cyclopentyl-7,7-difluoro-5-methyl-6-oxo-6,7,8,9-tetrahydro-5H-pyrimido[4,5-b][1,4]diazepin-2-yl)amino)-7-methoxy-1-oxo-3,4-dihydroisoquinolin-2(1H)-yl)piperidin-1-yl)-3-oxopropyl)piperazin-1-yl)-2-(2,6-dioxopiperidin-3-yl)isoindoline-1,3-dione] | < 0.4 | 14.4
++ (++<0.6) | CN1C(=O)C(F)(F)CN(C2CCCC2)c2nc(Nc3ccc(C(=O)NC4CCN(C(=O)CCN5CCN(c6cccc7c6C(=O)N(C6CCC(=O)NC6=O)C7=O)CC5)CC4)cc3F)ncc21 (stereo not drawn) [Compound 118, 4-((9-cyclopentyl-7,7-difluoro-5-methyl-6-oxo-6,7,8,9-tetrahydro-5H-pyrimido[4,5-b][1,4]diazepin-2-yl)amino)-N-(1-(3-(4-(2-(2,6-dioxopiperidin-3-yl)-1,3-dioxoisoindolin-4-yl)piperazin-1-yl)propanoyl)piperidin-4-yl)-3-fluorobenzamide] | < 0.05 | > 10
+ (+<0.7) | COc1cc(C(=O)NN2CCC(N3CCN(c4cccc5c4C(=O)N(C4CCC(=O)NC4=O)C5=O)CC3)C2)ccc1Nc1ncc2c(n1)N(C(C)C)CC(F)(F)C(=O)N2C (stereo not drawn) [Compound 155, 4-((7,7-difluoro-9-isopropyl-5-methyl-6-oxo-6,7,8,9-tetrahydro-5H-pyrimido[4,5-b][1,4]diazepin-2-yl)amino)-N-(3-(4-(2-(2,6-dioxopiperidin-3-yl)-1,3-dioxoisoindolin-4-yl)piperazin-1-yl)pyrrolidin-1-yl)-3-methoxybenzamide] | < 0.1 | > 10
+++ (+++: <0.3) | COc1cc(C(=O)NC2CC3(CCN(CC4CCN(c5cccc6c5C(=O)N(C5CCC(=O)NC5=O)C6=O)CC4)CC3)C2)ccc1Nc1ncc2c(n1)N(C1CCCC1)CC(F)(F)C(=O)N2C (stereo not drawn) [Compound 136, 4-((9-cyclopentyl-7,7-difluoro-5-methyl-6-oxo-6,7,8,9-tetrahydro-5H-pyrimido[4,5-b][1,4]diazepin-2-yl)amino)-N-(7-((1-(2-(2,6-dioxopiperidin-3-yl)-1,3-dioxoisoindolin-4-yl)piperidin-4-yl)methyl)-7-azaspiro[3.5]nonan-2-yl)-3-methoxybenzamide] | < 0.03 | 6.52
++ (++<0.6) | COc1cc(C(=O)NC2CCN(C(=O)CC3CN(c4ccc5c(c4)C(=O)N(C4CCC(=O)NC4=O)C5=O)C3)CC2)c(F)cc1Nc1ncc2c(n1)N(C1CCCC1)CC(F)(F)C(=O)N2C (stereo not drawn) [Compound 205, 4-((9-cyclopentyl-7,7-difluoro-5-methyl-6-oxo-6,7,8,9-tetrahydro-5H-pyrimido[4,5-b][1,4]diazepin-2-yl)amino)-N-(1-(2-(1-(2-(2,6-dioxopiperidin-3-yl)-1,3-dioxoisoindolin-5-yl)azetidin-3-yl)acetyl)piperidin-4-yl)-2-fluoro-5-methoxybenzamide] | < 0.05 | > 10
++ (++<0.6) | COc1cc(C(=O)NN2CCC(N3CC4(CCN(c5cccc6c5C(=O)N(C5CCC(=O)NC5=O)C6=O)CC4)C3)CC2)c(F)cc1Nc1ncc2c(n1)N(C(C)C)CC(F)(F)C(=O)N2C (stereo not drawn) [Compound 210, 4-((7,7-difluoro-9-isopropyl-5-methyl-6-oxo-6,7,8,9-tetrahydro-5H-pyrimido[4,5-b][1,4]diazepin-2-yl)amino)-N-(4-(7-(2-(2,6-dioxopiperidin-3-yl)-1,3-dioxoisoindolin-4-yl)-2,7-diazaspiro[3.5]nonan-2-yl)piperidin-1-yl)-2-fluoro-5-methoxybenzamide] | < 0.05 | 18.2
